Data published in patent US4914187A, “Ester derivatives of antibiotic L 17046” (Gruppo Lepetit S.p.A, priority 1989, dated 1990).
Converted amounts (≈) assume the structure as drawn.

Tests used:
S. aureus TOUR = test: agar-dilution MIC test; type: cell-based
Excerpt: Isosensitest broth (Oxoid) and Todd-Hewitt broth (Difco) are used for growing staphylococci and streptococci, respectively. […]

E. coli SKF 12140 = test: agar-dilution MIC test; type: cell-based
[1] = test system: S. pyogenes C 203 SKF 13400; test: agar-dilution MIC test; type: cell-based
Experimental: (§1) Isosensitest broth (Oxoid) and Todd-Hewitt broth (Difco) are used for growing staphylococci and streptococci, respectively. Broth cultures are diluted so that the final inoculum is about 10^4 colony forming units/ml (CFU/ml).

S. pneumoniae UC 41 = test: agar-dilution MIC test; type: cell-based
Experimental: as §1

S. faecalis ATCC 7080 = test: agar-dilution MIC test; type: cell-based
Experimental: as §1

S. aureus ATCC 6538 = test: agar-dilution MIC test; type: cell-based; conditions: 18-24 h at 37° C.
Experimental: as §1

[2] = test system: S. epidermidis ATCC 12228; test: agar-dilution MIC test; type: cell-based
Experimental: as §1

pKa by titration = type: physicochemical; conditions: methylcellulose ®/water 4:1 (v/v), excess 0.01 M hydrogen chloride, titrated with 0.01 M NaOH
Experimental: ^(c) the samples are dissolved in methylcellulose ®/water 4:1
(v/v), an excess of 0.01 M hydrogen chloride in the same mixture is added
thereto and the resulting solution is titrated with 0.01 M NaOH in the […]

[3] = S. aureus TOUR + 30% bovine serum

Row | MIC (S. aureus TOUR; S. aureus TOUR (10^3 CFU/ml)) [µg/mL] | MIC (S. aureus TOUR; S. aureus TOUR (10^6 CFU/ml)) [µg/mL] | MIC (S. aureus TOUR; [3]) [µg/mL] | MIC (E. coli SKF 12140) [µg/mL] | MIC [1] [µg/mL] | MIC (S. pneumoniae UC 41) [µg/mL] | MIC (S. faecalis ATCC 7080) [µg/mL] | MIC (S. aureus ATCC 6538) [µg/mL] | MIC [2] [µg/mL] | pKa (pKa by titration) | SMILES
1 | 0.25 | 0.5 | 0.5 | 128 | 0.25 | 0.5 | 0.5 | 0.25 | 0.064 | 6.67 | CC(=O)N[C@H]1[C@H](OC2c3ccc(c(Cl)c3)Oc3cc4cc(c3O)Oc3ccc(cc3Cl)CC3NC(=O)C(N)c5ccc(O)c(c5)Oc5cc(O)cc(c5)C(NC3=O)C(=O)NC4C(=O)NC3C(=O)NC2C(=O)NC(C(=O)OCCCl)c2cc(O)cc(O)c2-c2cc3ccc2O)O[C@H](CO)[C@@H](O)[C@@H]1O.Cl (some centres unmarked) [Example 4, antibiotic L 17046 2-chloroethyl ester, hydrochloride]
2 | 0.125 | 0.25 | 0.5 | 128 | 0.25 | 0.5 | 0.5 | 0.25 | 0.016 | 6.65 | CCCCOC(=O)C1NC(=O)C2NC(=O)C(NC(=O)C3NC(=O)C4NC(=O)C(Cc5ccc(c(Cl)c5)Oc5cc3cc(c5O)Oc3ccc(cc3Cl)C2O[C@@H]2O[C@H](CO)[C@@H](O)[C@H](O)[C@H]2NC(C)=O)NC(=O)C(N)c2ccc(O)c(c2)Oc2cc(O)cc4c2)c2ccc(O)c(c2)-c2c(O)cc(O)cc21.Cl (some centres unmarked) [Example 3, antibiotic L 17046 n-butyl ester, hydrochloride]
3 | 0.25 | 0.5 | 0.5 | 128 | 0.5 | 0.5 | 0.5 | 0.25 | 0.016 | 6.68 | CCOC(=O)C1NC(=O)C2NC(=O)C(NC(=O)C3NC(=O)C4NC(=O)C(Cc5ccc(c(Cl)c5)Oc5cc3cc(c5O)Oc3ccc(cc3Cl)C2O[C@@H]2O[C@H](CO)[C@@H](O)[C@H](O)[C@H]2NC(C)=O)NC(=O)C(N)c2ccc(O)c(c2)Oc2cc(O)cc4c2)c2ccc(O)c(c2)-c2c(O)cc(O)cc21.Cl (some centres unmarked) [Example 2, antibiotic L 17046 ethyl ester, hydrochloride]
4 | 0.125 | 0.125 | 0.5 | 128 | 0.25 | 0.125 | 0.25 | 0.25 | 0.064 | 6.66 | CC(=O)N[C@H]1[C@H](OC2c3ccc(c(Cl)c3)Oc3cc4cc(c3O)Oc3ccc(cc3Cl)CC3NC(=O)C(N)c5ccc(O)c(c5)Oc5cc(O)cc(c5)C(NC3=O)C(=O)NC4C(=O)NC3C(=O)NC2C(=O)NC(C(=O)OCCCCCl)c2cc(O)cc(O)c2-c2cc3ccc2O)O[C@H](CO)[C@@H](O)[C@@H]1O.Cl (some centres unmarked) [Example 5, antibiotic L 17046 4-chlorobutyl ester, hydrochloride]
5 | 0.125 (≈ 0.083 µM) | 0.25 (≈ 0.166 µM) | 4 | 64 (≈ 42.5 µM) | 0.125 (≈ 0.083 µM) | 0.5 (≈ 0.332 µM) | 0.25 (≈ 0.166 µM) |  | 0.063 (≈ 0.0418 µM) |  | CC(=O)N[C@H]1[C@H](OC2c3ccc(c(Cl)c3)Oc3cc4cc(c3O)Oc3ccc(cc3Cl)CC3NC(=O)C(N)c5ccc(O)c(c5)Oc5cc(O)cc(c5)C(NC3=O)C(=O)NC4C(=O)NC3C(=O)NC2C(=O)NC(C(=O)OCc2ccc(C)cc2)c2cc(O)cc(O)c2-c2cc3ccc2O)O[C@H](CO)[C@@H](O)[C@@H]1O (some centres unmarked) [Example 10, antibiotic L 17046 (4-methyl)-benzyl ester]

Row | SMILES | MIC (S. aureus TOUR; S. aureus TOUR (10^3 CFU/ml)) [µg/mL] | MIC (S. aureus TOUR; S. aureus TOUR (10^6 CFU/ml)) [µg/mL] | MIC (S. aureus TOUR; [3]) [µg/mL] | MIC (E. coli SKF 12140) [µg/mL] | MIC [1] [µg/mL] | MIC (S. pneumoniae UC 41) [µg/mL] | MIC (S. faecalis ATCC 7080) [µg/mL] | MIC (S. aureus ATCC 6538) [µg/mL] | MIC [2] [µg/mL] | pKa (pKa by titration)
6 | COC(=O)C1NC(=O)C2NC(=O)C(NC(=O)C3NC(=O)C4NC(=O)C(Cc5ccc(c(Cl)c5)Oc5cc3cc(c5O)Oc3ccc(cc3Cl)C2O[C@@H]2O[C@H](CO)[C@@H](O)[C@H](O)[C@H]2NC(C)=O)NC(=O)C(N)c2ccc(O)c(c2)Oc2cc(O)cc4c2)c2ccc(O)c(c2)-c2c(O)cc(O)cc21.Cl (some centres unmarked) [Example 1, antibiotic L 17046 methyl ester, hydrochloride] | 0.125 | 0.5 | 0.25 | 128 | 0.5 | 0.5 | 0.5 | 0.125 | 0.016 | 6.70
7 | CC(=O)N[C@H]1[C@H](OC2c3ccc(c(Cl)c3)Oc3cc4cc(c3O)Oc3ccc(cc3Cl)CC3NC(=O)C(N)c5ccc(O)c(c5)Oc5cc(O)cc(c5)C(NC3=O)C(=O)NC4C(=O)NC3C(=O)NC2C(=O)NC(C(=O)OCc2ccccc2)c2cc(O)cc(O)c2-c2cc3ccc2O)O[C@H](CO)[C@@H](O)[C@@H]1O.O=C(O)C(F)(F)F (some centres unmarked) [Example 8, antibiotic L 17046 benzyl ester trifluoroacetate] | 0.125 | 0.125 | 4 | 64 | 0.125 | 0.25 | 0.125 |  | 0.063 | 
8 | CC(=O)N[C@H]1[C@H](OC2c3ccc(c(Cl)c3)Oc3cc4cc(c3O)Oc3ccc(cc3Cl)CC3NC(=O)C(N)c5ccc(O)c(c5)Oc5cc(O)cc(c5)C(NC3=O)C(=O)NC4C(=O)NC3C(=O)NC2C(=O)NC(C(=O)OCCO)c2cc(O)cc(O)c2-c2cc3ccc2O)O[C@H](CO)[C@@H](O)[C@@H]1O.O=C(O)C(F)(F)F (some centres unmarked) [Example 12, antibiotic L 17046 (2-hydroxy)ethyl ester trifluroacetate] | 0.125 | 0.125 | 0.5 | 128 | 0.25 | 1 | 0.25 |  | 0.063 | 
